Test results from ChEMBL document CHEMBL1201862, “PubChem BioAssay data set” (2004).
Activity calls are given as the source filed them.

Legend:
HEK293 [1] = assay: membrane integrity loss in HEK cells – cell-based, fluorescence, cytotoxicity control for IDE activator project, dose response (AID 588440); type: functional; conditions: Homo sapiens;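 note: cytotoxicity by LDH release measuring loss of membrane integrity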
HEK293 [2] = assay: optical interference in Abeta FP readout, dose response, artefact control for IDE activator project, biochemical, fluorescence polarization (AID 588442); type: functional, cell-based; conditions: Homo sapiens
Insulin-degrading enzyme [3] = biological target: T1, Insulin-degrading enzyme (Homo sapiens, UniProt P14735); assay: recombinant IDE activation, cell-free – biochemical, fluorescence polarization, counter-screen for IDE activator project, dose response (AID 588681)
T1 sequence (P14735 whole entry): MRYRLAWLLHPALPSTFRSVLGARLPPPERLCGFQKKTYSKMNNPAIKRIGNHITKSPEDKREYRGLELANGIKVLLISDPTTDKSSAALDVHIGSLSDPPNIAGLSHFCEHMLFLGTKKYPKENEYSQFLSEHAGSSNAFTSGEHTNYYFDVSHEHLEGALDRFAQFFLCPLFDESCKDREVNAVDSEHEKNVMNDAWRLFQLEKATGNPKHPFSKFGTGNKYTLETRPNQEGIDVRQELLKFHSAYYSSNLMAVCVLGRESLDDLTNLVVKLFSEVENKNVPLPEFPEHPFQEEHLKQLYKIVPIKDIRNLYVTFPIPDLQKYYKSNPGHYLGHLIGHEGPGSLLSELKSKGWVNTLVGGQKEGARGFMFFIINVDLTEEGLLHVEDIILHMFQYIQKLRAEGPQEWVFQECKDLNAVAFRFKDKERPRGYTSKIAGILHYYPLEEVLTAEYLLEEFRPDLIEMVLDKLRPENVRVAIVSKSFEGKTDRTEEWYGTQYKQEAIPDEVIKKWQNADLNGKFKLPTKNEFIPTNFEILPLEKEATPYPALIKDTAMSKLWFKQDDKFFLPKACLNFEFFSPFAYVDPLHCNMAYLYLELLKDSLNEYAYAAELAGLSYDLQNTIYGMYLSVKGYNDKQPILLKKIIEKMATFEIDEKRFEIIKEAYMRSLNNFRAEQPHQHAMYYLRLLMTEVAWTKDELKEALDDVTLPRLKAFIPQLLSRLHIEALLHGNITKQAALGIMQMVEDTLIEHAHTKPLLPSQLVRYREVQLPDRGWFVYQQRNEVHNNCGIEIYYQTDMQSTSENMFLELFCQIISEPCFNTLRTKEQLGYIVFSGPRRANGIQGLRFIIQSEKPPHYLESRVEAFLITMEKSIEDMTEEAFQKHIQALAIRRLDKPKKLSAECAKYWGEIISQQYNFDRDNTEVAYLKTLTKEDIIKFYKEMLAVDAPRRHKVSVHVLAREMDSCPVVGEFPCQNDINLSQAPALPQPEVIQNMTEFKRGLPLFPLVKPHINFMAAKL

Insulin-degrading enzyme [4] = biological target: T1, Insulin-degrading enzyme; assay: cellular IDE activation of Abeta substrate cleavage – fluorescence polarization, HEK cells, dose response (AID 588439); type: functional, cell-based
[5] = biological target: T2, Sentrin-specific protease 8 (Homo sapiens, UniProt Q96LD8); assay: inhibition of human SENP8 cleavage activity – biochemical, luminescence, SAR follow-up (AID 504501); type: functional
T2 sequence (Q96LD8 whole entry): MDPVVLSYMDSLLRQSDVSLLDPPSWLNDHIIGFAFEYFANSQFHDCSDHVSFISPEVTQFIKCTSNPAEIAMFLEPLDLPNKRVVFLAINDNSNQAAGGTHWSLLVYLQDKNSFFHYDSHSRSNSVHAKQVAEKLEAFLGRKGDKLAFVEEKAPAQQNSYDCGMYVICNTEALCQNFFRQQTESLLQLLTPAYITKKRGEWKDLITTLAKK

[6] = biological target: T3, Sentrin-specific protease 6 (Homo sapiens, UniProt Q9GZR1); assay: SAR Analysis of small molecule inhibitors of Sentrin-specific protease 6 (SENP6) using a Luminescent assay. [Related pubchem assays (depositor defined):AID2582, AID2599]; type: functional
T3 sequence (Q9GZR1 whole entry): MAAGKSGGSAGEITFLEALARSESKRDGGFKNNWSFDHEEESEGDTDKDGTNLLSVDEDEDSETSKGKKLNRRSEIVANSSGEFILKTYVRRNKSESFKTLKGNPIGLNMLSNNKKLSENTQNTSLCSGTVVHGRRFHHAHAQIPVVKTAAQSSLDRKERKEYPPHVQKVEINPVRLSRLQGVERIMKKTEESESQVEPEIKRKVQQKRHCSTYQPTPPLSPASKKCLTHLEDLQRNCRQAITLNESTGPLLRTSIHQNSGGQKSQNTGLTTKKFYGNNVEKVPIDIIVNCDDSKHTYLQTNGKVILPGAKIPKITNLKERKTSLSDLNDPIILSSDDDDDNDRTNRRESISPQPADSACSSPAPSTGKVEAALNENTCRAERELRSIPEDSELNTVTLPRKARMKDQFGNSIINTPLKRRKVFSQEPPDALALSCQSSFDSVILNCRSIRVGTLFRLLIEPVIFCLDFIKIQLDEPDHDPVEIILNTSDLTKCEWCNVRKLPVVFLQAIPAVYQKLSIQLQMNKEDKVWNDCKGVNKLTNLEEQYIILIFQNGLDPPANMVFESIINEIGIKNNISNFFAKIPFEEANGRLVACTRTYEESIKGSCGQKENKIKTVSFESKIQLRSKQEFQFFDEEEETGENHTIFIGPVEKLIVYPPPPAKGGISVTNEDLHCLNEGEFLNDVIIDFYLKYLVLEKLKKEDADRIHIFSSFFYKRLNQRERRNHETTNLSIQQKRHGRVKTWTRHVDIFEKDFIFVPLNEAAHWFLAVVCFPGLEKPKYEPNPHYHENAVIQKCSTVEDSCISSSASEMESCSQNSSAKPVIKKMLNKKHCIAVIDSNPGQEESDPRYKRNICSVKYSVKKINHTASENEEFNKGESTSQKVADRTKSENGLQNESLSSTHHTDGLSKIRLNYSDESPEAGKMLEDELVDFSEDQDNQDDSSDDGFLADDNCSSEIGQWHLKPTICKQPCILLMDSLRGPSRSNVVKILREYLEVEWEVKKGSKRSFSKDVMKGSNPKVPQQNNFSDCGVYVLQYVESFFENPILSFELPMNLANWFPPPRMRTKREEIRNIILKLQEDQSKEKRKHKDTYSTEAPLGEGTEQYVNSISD

Caspase-3 = biological target: T4, Caspase-3 (Homo sapiens, UniProt P42574); assay: SAR Analysis of small molecule inhibitors of Sentrin-specific proteases (SENPs) using a Caspase-3 Selectivity assay. [Related pubchem assays (depositor defined):AID2540, AID2599, AID434973, AID489001]; type: functional
T4 sequence (P42574 whole entry): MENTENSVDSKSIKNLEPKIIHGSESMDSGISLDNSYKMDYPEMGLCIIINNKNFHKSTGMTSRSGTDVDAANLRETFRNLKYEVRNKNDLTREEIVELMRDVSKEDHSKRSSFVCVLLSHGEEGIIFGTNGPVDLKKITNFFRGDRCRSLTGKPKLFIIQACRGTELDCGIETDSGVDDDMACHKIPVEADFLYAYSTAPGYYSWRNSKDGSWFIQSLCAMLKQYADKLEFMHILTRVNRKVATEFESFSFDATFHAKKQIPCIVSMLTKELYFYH

[7] = biological target: T5, Sentrin-specific protease 7 (Homo sapiens, UniProt Q9BQF6); assay: inhibition of human SENP7 cleavage activity – biochemical, luminescence, SAR follow-up (AID 504497); type: functional
T5 sequence (Q9BQF6 whole entry): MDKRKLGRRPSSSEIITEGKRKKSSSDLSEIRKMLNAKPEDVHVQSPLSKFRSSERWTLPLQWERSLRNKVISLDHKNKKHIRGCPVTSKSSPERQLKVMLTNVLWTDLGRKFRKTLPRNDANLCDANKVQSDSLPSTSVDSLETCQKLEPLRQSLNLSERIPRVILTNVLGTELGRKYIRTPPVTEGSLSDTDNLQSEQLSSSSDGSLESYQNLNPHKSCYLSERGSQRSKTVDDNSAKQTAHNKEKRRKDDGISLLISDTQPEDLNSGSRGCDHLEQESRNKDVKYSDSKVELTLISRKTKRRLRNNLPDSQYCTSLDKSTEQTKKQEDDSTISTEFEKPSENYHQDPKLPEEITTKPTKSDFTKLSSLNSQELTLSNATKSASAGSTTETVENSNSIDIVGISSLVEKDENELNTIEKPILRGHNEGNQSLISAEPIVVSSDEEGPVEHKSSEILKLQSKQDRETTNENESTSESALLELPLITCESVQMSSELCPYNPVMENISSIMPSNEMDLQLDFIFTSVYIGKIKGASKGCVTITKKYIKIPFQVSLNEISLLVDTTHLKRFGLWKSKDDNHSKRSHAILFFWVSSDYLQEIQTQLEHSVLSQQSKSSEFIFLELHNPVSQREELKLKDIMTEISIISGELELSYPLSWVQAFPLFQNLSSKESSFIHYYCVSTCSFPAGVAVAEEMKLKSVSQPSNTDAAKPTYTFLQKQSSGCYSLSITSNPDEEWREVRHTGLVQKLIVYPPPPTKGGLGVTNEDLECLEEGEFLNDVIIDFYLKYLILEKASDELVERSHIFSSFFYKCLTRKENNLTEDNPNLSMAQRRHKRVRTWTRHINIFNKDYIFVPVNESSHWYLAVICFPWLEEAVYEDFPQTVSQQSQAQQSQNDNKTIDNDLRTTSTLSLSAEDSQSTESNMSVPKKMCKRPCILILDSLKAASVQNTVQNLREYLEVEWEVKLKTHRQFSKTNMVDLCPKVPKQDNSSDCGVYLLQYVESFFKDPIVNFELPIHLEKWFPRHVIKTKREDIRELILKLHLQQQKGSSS

[8] = biological target: DNA dC->dU-editing enzyme APOBEC-3G (Homo sapiens, UniProt Q9HC16); assay: inhibition of APOBEC3G ssDNA deamination – biochemical, fluorescence, single-stranded DNA substrate, SAR follow-up (AID 602136); type: functional; conditions: read-out: IC50_Mean
Sequence of DNA dC->dU-editing enzyme APOBEC-3G (Q9HC16 whole entry): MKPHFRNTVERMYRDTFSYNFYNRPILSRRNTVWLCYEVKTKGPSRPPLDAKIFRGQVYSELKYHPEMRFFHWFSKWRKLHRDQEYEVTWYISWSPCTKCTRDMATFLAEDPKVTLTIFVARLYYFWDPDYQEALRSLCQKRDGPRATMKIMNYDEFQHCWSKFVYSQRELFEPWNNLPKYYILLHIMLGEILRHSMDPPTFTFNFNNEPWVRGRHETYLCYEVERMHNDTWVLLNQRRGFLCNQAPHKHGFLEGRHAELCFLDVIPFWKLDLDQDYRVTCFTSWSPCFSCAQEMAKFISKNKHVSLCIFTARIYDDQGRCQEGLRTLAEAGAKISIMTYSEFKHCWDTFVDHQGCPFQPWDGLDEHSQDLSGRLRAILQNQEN

[9] = biological target: DNA dC->dU-editing enzyme APOBEC-3A (Homo sapiens, UniProt P31941); assay: SAR analysis of small molecule inhibitors of APOBEC3A DNA Deaminase via a fluorescence-based single-stranded DNA deaminase assay.; type: functional; conditions: read-out: IC50_Mean
Sequence of DNA dC->dU-editing enzyme APOBEC-3A (P31941 whole entry): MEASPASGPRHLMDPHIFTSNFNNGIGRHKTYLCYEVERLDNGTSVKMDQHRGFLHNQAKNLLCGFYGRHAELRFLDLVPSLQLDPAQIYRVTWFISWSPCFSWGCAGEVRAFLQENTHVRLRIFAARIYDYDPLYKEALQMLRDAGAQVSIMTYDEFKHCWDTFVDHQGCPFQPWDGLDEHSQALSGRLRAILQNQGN

[10] = Vero cell cytotoxicity, cytotoxicity control for M. tuberculosis inhibitor project, purified and synthesized samples, set 3 (AID 504684); type: functional
[11] = biological target: T6, Serine/threonine-protein phosphatase (Candida dubliniensis (strain CD36 / CBS 7987 / NCPF 3949 / NRRLY-17841) (Yeast), UniProt B9W6M3); assay: blockers of CaCl2-induced CDRE-lacZ signaling – S. cerevisiae, luminescence, secondary, dose response (AID 2388); type: functional, cell-based;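 note: yeast reporter cells carrying a calcineurin-responsive lacZ construct stimulated with calcium chloride; luminescent beta-galactosidase reporter signal in whole cells rather than isolated phosphatase activity; potency for inhibition where a drop in reporter signal means calcineurin blockade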
T6 sequence (B9W6M3 whole entry): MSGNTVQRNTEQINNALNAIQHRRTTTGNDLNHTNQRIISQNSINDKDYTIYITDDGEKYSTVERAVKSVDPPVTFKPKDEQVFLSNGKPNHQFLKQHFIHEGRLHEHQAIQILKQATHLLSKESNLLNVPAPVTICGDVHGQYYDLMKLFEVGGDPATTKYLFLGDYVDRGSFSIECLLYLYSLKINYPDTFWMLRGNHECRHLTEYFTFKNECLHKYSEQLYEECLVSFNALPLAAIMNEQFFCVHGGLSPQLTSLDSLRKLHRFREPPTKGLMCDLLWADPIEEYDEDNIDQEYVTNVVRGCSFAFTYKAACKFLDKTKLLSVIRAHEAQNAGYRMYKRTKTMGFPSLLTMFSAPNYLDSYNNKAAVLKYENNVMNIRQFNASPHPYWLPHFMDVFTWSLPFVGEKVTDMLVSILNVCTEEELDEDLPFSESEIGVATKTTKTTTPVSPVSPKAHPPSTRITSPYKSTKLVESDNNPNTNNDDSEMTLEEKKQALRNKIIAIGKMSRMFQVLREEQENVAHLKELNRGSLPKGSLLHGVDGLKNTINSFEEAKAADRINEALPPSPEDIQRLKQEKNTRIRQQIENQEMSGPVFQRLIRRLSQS

[12] = biological target: ATP-dependent molecular chaperone HSP82 (Candida albicans (strain WO-1) (Yeast), UniProt C4YTQ8); assay: steroid-induced GRE reporter decrease in yeast – S. cerevisiae, luminescence, Hsp90 inhibitor project, dose response (AID 2400); type: functional, cell-based;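 note: beta-galactosidase luminescence from glucocorticoid response element reporter as proxy for Hsp90 function; inhibitor potency where signal loss means Hsp90 inhibition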
Sequence of ATP-dependent molecular chaperone HSP82 (C4YTQ8 whole entry): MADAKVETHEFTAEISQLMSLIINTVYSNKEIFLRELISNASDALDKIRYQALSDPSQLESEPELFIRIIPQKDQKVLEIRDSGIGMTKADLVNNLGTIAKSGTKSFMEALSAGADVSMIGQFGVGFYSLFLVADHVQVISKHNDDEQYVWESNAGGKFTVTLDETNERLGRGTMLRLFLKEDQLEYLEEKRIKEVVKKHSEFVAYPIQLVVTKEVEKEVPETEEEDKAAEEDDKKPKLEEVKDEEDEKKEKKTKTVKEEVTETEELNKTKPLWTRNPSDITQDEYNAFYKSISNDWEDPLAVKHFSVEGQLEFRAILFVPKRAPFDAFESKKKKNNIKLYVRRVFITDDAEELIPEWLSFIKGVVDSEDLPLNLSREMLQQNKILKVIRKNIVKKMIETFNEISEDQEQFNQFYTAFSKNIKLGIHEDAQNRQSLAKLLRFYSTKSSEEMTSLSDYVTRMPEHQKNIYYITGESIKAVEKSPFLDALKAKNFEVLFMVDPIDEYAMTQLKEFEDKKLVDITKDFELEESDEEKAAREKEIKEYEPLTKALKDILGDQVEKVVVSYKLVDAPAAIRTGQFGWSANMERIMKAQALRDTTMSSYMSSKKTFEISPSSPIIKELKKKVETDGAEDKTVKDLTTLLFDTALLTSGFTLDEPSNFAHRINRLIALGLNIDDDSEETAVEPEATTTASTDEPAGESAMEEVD

INS1 = assay: INS-1E survival protection against cytokine death – cell-based, luminescence, retest, dose response (AID 449756); type: functional; conditions: Rattus norvegicus;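 note: cell death triggered by IL-1 beta plus TNF-alpha plus IFN-gamma mixture; protective hits raise ATP signal compared with cytokine alone wells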
[13] = fluconazole-exposed Candida albicans growth modulators – fluorescence, retest, confirmation (AID 2467); type: functional, cell-based
[14] = A Cell Based Secondary Assay to Explore Cytotoxicity in THP-1 Cells of Compounds that Modulate Mycobacterium tuberculosis in Media Containing Glycerol versus Media without Glycerol (2).; type: functional
[15] = microbe, parasite or virus in culture; type: functional; conditions: Mycobacterium tuberculosis
[16] = NIH-3T3 fibroblast cytotoxicity, dose response, cytotoxicity control, cell-based, fluorescence, Alamar Blue, secondary assay (AID 2327); type: functional;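 note: NIH-3T3 mouse fibroblasts cultured with fluconazole at 8 µg/mL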
[17] = A Cell Based Secondary Assay to Explore Cytotoxicity in HepG2 Cells of Compounds that Modulate Mycobacterium tuberculosis in Media Containing Glycerol versus Media without Glycerol (2).; type: functional

SMILES: O=C(CN1CCN(CN2C(=O)NC3(CCCCCC3)C2=O)CC1)Nc1ccc(F)cc1
- IC50 (HEK293 [1]): > 89.2 µM (inactive)
- EC50 (HEK293 [2]): > 55.9 µM (inactive)
- EC50 (Insulin-degrading enzyme [3]): > 54.7 µM (inactive)
- EC50 (Insulin-degrading enzyme [4]): > 54.7 µM (inactive)

SMILES: CCS(=O)(=O)c1cccc(C(=O)Nc2nc3ccc(Br)cc3s2)c1
- IC50 [5]: > 99 µM (inactive)
- IC50 [6]: > 99 µM (inactive)
- IC50 (Caspase-3): > 99 µM (inactive)
- IC50 [7]: > 99 µM (inactive)

SMILES: O=C(NC1CCCCC1)c1nn2c(C(F)(F)F)cc(-c3ccc(Br)cc3)nc2c1Cl
- IC50 [8]: > 99 µM (inactive)
- IC50 [9]: > 99 µM (inactive)

SMILES: Cc1ccc2ccc3ccc(C)nc3c2n1 [NEOCUPROINE]
- CC50 [10]: 1.23 µM (active)
- EC50 [11]: > 180 µM (inactive)
- EC50 [12]: > 150 µM (inactive)
- AC50 (INS1): < 0.195 µM (active)
- EC50 [13]: 0.133 µM (active)
- CC50 [14]: < 0.2 µM (active)
- CC50 [15]: 36.4 µM (active)
- EC50 [16]: 147 µM (active)
- CC50 [17]: 0.21 µM (active)

SMILES: c1cncc(-c2nc3sc4c(c3c3nncn23)CCCC4)c1
- IC50 [8]: > 99 µM (inactive)
- IC50 [9]: > 99 µM (inactive)
